The structures appear in SMILES notation.

For assay [1], the target named is T1, full-length pufferfish Tas1r1/Tas1r3 (Takifugu rubripes, UniProt Q2MHJ8+Q2MHK1).
T1 construct: full-length heterodimer, transiently expressed in HEK293T with rat G15i2 and mt-apoclytin-II
T1 sequence (Q2MHK1 25-845): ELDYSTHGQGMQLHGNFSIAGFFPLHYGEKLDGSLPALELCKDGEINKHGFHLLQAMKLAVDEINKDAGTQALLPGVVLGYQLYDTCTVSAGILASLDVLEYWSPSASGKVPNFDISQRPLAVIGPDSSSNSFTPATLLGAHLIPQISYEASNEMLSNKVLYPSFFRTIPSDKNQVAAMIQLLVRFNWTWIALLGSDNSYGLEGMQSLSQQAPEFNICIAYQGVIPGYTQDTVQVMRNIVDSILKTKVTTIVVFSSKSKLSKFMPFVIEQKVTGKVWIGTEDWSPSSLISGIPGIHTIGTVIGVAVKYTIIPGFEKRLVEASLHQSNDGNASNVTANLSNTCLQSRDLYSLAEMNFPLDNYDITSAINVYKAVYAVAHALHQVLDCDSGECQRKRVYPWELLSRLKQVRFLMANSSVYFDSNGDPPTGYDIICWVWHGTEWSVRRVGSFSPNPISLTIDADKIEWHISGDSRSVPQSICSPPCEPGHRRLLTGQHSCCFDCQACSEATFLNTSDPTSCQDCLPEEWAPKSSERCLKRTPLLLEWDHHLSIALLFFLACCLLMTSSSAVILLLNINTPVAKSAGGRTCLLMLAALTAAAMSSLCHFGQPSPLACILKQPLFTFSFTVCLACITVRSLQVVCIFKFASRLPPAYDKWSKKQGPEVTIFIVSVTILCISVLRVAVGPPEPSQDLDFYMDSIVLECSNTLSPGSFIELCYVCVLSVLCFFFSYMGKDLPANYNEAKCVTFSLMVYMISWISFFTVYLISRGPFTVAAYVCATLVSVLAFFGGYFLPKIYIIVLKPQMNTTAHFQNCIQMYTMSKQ
T1 sequence (Q2MHJ8 20-853): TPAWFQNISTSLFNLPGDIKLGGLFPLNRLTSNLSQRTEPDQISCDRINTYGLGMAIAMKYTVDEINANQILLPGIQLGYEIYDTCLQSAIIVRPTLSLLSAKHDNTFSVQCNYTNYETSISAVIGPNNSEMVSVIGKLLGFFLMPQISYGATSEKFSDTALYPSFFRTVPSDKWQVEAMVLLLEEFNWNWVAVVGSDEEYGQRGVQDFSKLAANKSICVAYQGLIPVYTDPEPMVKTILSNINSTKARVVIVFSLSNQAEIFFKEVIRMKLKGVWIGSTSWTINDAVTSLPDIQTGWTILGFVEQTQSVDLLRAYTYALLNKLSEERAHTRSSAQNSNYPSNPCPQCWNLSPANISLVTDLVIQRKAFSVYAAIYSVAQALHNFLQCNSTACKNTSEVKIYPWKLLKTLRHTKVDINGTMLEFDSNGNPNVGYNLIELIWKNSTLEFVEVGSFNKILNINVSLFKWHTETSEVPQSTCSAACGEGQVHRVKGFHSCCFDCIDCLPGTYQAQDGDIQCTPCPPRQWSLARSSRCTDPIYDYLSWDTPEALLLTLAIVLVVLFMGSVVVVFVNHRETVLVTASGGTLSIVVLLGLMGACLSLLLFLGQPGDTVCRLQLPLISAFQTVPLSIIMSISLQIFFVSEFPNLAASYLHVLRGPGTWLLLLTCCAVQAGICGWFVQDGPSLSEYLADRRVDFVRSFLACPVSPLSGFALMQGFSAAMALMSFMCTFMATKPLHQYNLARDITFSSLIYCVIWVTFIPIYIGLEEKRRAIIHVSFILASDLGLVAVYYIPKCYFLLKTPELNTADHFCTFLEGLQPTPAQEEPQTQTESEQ
As to the kind of experiment: luminometric Ca2+ response (mt-clytin-II), HEK293T. Type of assay: cell-based. The note with it: agonist.

The target in assay [2] is T2, pufferfish Tas1r1/Tas1r3LBD ("wild-type", free-cysteine eliminated) (Takifugu rubripes, UniProt Q2MHJ8+Q2MHK1, Q2MHJ8:C238S/Q2MHK1:C242S/Q2MHK1:D306A).
T2 construct: Tas1r1 Met1-Ser501 with C-terminal PA tag, Tas1r3 Met1-Ser496 with C-terminal FLAG tag; Endo H treated for crystals
Nature of the assay: differential scanning fluorimetry. Type of assay: binding. The conditions noted are these: read-out: Kd-app. From the text:
(§1) differential scanning fluorimetry on pufferfish Tas1r1/Tas1r3LBD ("wild-type", free-cysteine eliminated)

Assay [3] concerns the target T3, pufferfish Tas1r1/Tas1r3LBD ("wild-type", free-cysteine eliminated) (Takifugu rubripes, UniProt Q2MHJ8+Q2MHK1, Q2MHJ8:C238S/Q2MHK1:C242S/Q2MHK1:E174A).
T3 construct: Tas1r1 Met1-Ser501 with C-terminal PA tag, Tas1r3 Met1-Ser496 with C-terminal FLAG tag; Endo H treated for crystals
Nature of the assay: differential scanning fluorimetry. Type of assay: binding. The conditions noted are these: read-out: Kd-app.
Description: as §1

Assay [4] concerns the target T4, pufferfish Tas1r1/Tas1r3LBD ("wild-type", free-cysteine eliminated) (Takifugu rubripes, UniProt Q2MHJ8+Q2MHK1, Q2MHJ8:C238S/Q2MHK1:C242S/Q2MHK1:Y385F).
T4 construct: Tas1r1 Met1-Ser501 with C-terminal PA tag, Tas1r3 Met1-Ser496 with C-terminal FLAG tag; Endo H treated for crystals
As to the kind of experiment: differential scanning fluorimetry. The conditions noted are these: read-out: Kd-app. Type of assay: binding.
Description: as §1
On the technique in general: In DSF a fluorescence change marks the thermal transition of the protein.

Assay [5] has as its target T5, pufferfish Tas1r1/Tas1r3LBD ("wild-type", free-cysteine eliminated) (Takifugu rubripes, UniProt Q2MHJ8+Q2MHK1, Q2MHJ8:C238S/Q2MHK1:C242S).
T5 construct: Tas1r1 Met1-Ser501 with C-terminal PA tag, Tas1r3 Met1-Ser496 with C-terminal FLAG tag; Endo H treated for crystals
Nature of the assay: differential scanning fluorimetry. Type of assay: binding. The conditions noted are these: read-out: Kd-app.
Description: as §1

For assay [6], the target named is T6, pufferfish Tas1r1/Tas1r3LBD ("wild-type", free-cysteine eliminated) (Takifugu rubripes, UniProt Q2MHJ8+Q2MHK1, Q2MHJ8:C238S/Q2MHK1:C242S/Q2MHK1:R469V).
T6 construct: Tas1r1 Met1-Ser501 with C-terminal PA tag, Tas1r3 Met1-Ser496 with C-terminal FLAG tag; Endo H treated for crystals
As to the kind of experiment: differential scanning fluorimetry. Type of assay: binding. The conditions noted are these: read-out: Kd-app.
Description: as §1

In assay [7] the target is T5, pufferfish Tas1r1/Tas1r3LBD ("wild-type", free-cysteine eliminated). Nature of the assay: X-ray crystal structure; DSF. Type of assay: binding. The conditions noted are these: orthosteric site in both subunits.

Regarding `C[C@H](N)C(=O)O` [L-alanine], in assay [1], the “response at 50 mM” value was “The receptor bound and responded to a wide range of L-amino acids, including L-alanine”. Also, the Kd amounted to 97.9 ± 22.5 µM in assay [2]; 61.4 ± 17.7 µM in assay [3]; 186 ± 13 µM in assay [4]; 126 ± 7 µM in assay [5]; 203 ± 13 µM in assay [6].
On to `N[C@H](Cc1ccccc1)C(=O)O` [D-phenylalanine], for which, in assay [1], the “response at 50 mM” value was “D-alanine and D-phenylalanine demonstrated a relatively high extent of binding and evoked low”. The “X-ray crystal structure; DSF” value in assay [7] is given as “D-phenylalanine-bound Tas1r1/Tas1r3LBD structure also adopts a compact dimerization manner”.
As for `CC(C)(N)C(=O)O` [2-methylalanine], in assay [5], the Kd is 1290 ± 140 µM.
For the compound `CN[C@@H](C)C(=O)O` [N-methyl-L-alanine], the Kd in assay [5] turned out to be 345 ± 8 µM.
Turning to `C[C@@H](N)C(=O)O` [D-alanine], the “response at 50 mM” value in assay [1] is “D-alanine and D-phenylalanine demonstrated a relatively high extent of binding and evoked low”. The Kd in assay [2] stood at 3140 ± 910 µM; in assay [3] it was 1690 ± 460 µM; in assay [4], 1980 ± 120 µM; in assay [5], 1440 ± 90 µM; in assay [6] it was 1880 ± 140 µM.

The record behind these values is article doi:10.1101/2025.11.24.689453v1, “Structural basis of stereochemical promiscuity by an umami taste receptor ortholog, Tas1r1/Tas1r3 from pufferfish” (biorxiv, 2025).
